ChEMBL document CHEMBL1201862, “PubChem BioAssay data set” (2004)
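Assay format: 96-well plates, 48-hour exposure. GI50 marks 50% less growth.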 The source made the active and inactive calls. Rule as the data show it: active = GI50 up to about 1.1 µM and inactive = higher.

What was measured:
Experiment in all cases: NCI anticancer screen, dose series, 48 h
UACC-257 = test system: UACC-257
MOLT-4 = test system: MOLT-4
SNB-19 = test system: SNB-19
HCC 2998 = test system: HCC 2998
OVCAR-4 = test system: OVCAR-4
NCI-H460 = test system: NCI-H460
SK-OV-3 = test system: SK-OV-3
HOP-62 = test system: HOP-62
786-0 = test system: 786-0
SR = test system: SR
OVCAR-5 = test system: OVCAR-5
U-251 = test system: U-251
NCI-H23 = test system: NCI-H23
NCI-H226 = test system: NCI-H226

Measured: GI50

[O-][S+]1Nc2c(Cl)cc(Cl)c(Cl)c2S1 (stereo unspecified)
inactive: UACC-257 > 100 µM | MOLT-4 34.7 µM | SNB-19 > 100 µM | HCC 2998 > 100 µM | OVCAR-4 > 100 µM | NCI-H460 > 100 µM | SK-OV-3 > 100 µM | HOP-62 > 100 µM | 786-0 > 100 µM | SR 43.1 µM | OVCAR-5 > 100 µM | U-251 38.6 µM | NCI-H23 > 100 µM | NCI-H226 > 100 µM

O=c1[nH]c2cc([N+](=O)[O-])ccc2nc1/C(=N\NO)C(O)c1ccc([N+](=O)[O-])cc1 (stereo unspecified)
inactive: UACC-257 > 100 µM | MOLT-4 > 100 µM | SNB-19 > 100 µM | HCC 2998 > 100 µM | OVCAR-4 > 100 µM | NCI-H460 > 100 µM | SK-OV-3 > 100 µM | HOP-62 > 100 µM | 786-0 > 100 µM | SR > 100 µM | OVCAR-5 > 100 µM | U-251 > 100 µM | NCI-H23 > 100 µM | NCI-H226 > 100 µM

COCNC(=NC#N)NCOC
inactive: UACC-257 > 100 µM | MOLT-4 > 100 µM | SNB-19 > 100 µM | HCC 2998 > 100 µM | OVCAR-4 > 100 µM | NCI-H460 > 100 µM | SK-OV-3 > 100 µM | HOP-62 > 100 µM | 786-0 > 47.2 µM | SR 20.2 µM | OVCAR-5 > 100 µM | U-251 > 58.5 µM | NCI-H23 > 100 µM | NCI-H226 > 100 µM

CC12CCC3(OCCO3)C(OC(=O)c3ccccc3)=C1CCC21OCCO1 (stereo unspecified)
inactive: UACC-257 > 100 µM | MOLT-4 > 100 µM | SNB-19 > 100 µM | HCC 2998 > 100 µM | OVCAR-4 > 100 µM | NCI-H460 > 100 µM | SK-OV-3 > 100 µM | HOP-62 > 100 µM | 786-0 > 100 µM | SR > 100 µM | OVCAR-5 > 100 µM | U-251 > 100 µM | NCI-H226 4.7 µM

O=C(O)CCC1c2[nH]c3ccccc3c2CCN1Cc1ccccc1 (stereo unspecified)
inactive: UACC-257 > 100 µM | MOLT-4 > 100 µM | SNB-19 > 100 µM | HCC 2998 > 100 µM | OVCAR-4 > 100 µM | NCI-H460 > 100 µM | SK-OV-3 > 100 µM | 786-0 > 100 µM | SR > 100 µM | OVCAR-5 > 100 µM | U-251 > 100 µM | NCI-H23 > 100 µM | NCI-H226 > 100 µM

CC(Nc1ccc(S(=O)(=O)NC(=N)N)cc1)c1c2ccccc2nc2ccccc12 (stereo unspecified)
inactive: UACC-257 35.3 µM | MOLT-4 14.6 µM | SNB-19 40 µM | HCC 2998 27.5 µM | OVCAR-4 10.1 µM | NCI-H460 25.4 µM | SK-OV-3 26.4 µM | 786-0 36 µM | SR 14.2 µM | OVCAR-5 20.2 µM | U-251 31.6 µM | NCI-H23 22.5 µM | NCI-H226 19.6 µM
